Holding throughout (assay): Cell growth inhibition assay
Type in all cases: cell-based

One assay deals with MDA-MB-453. Particulars: Homo sapiens, MDA-MB-453, MDA-MB-453, breast, HER2+, PIK3CA H1047R; single agent; read-out: IC50 Single Agent (mean +/- std). On the procedure: (§1) Human breast tumor lines. BT-474, HCC1419, HCC1937, HCC1954, HCC202, KPL-1, MDA-MB-157, MDA-MB-175-VII, MDA-MB-361, MDA-MB-453, SK-BR-3, SUM225PE, UACC893, and ZR-75-1; lung tumor line, CALU-3; and melanoma line, CHL-1, were from ATCC. Human breast tumor line JIMT-1 was from European Collection of Cell Cultures (UK). Human breast tumor lines SUM149PT, SUM190PT and SUM52PE were from Asterand. These lines were cultured in RPMI 1640 medium containing 10% fetal bovine serum (FBS). A head and neck tumor line, LICR LON HN5 (HN5), a gift from the Institute of Cancer Research, Surrey, U.K, was cultured in Dulbecco's modified Eagle medium (DMEM) containing 5% FBS; KPL-4 breast tumor cell line was kindly provided by Dr Junichi Kurebayashi (Kawasaki Medical School, Okayama, Japan) and cultured in DMEM containing 5% FBS. JIMT-1 is a line derived from a patient clinically resistant to trastuzumab (Herceptin®). BT-474-J4 is a single cell clone derived from a pool of BT-474 cells that were selected to grow in lapatinib to a concentration of 3 μM.
(§2) All cells were cultured for a minimum of 72 hours prior to cell plating. Cells were assayed in a 96-well tissue culture plate (NUNC 136102) of RPMI medium containing 10% FBS for all cells at 2,000 cells per well except KPL-4 and HN5 which were plated in DMEM containing 5% FBS at 500 cells per well. Approximately 24 hours after plating, cells were exposed to ten, two-fold or three-fold serial dilutions of compound or the combination of the two agents at a constant molar to molar ratio of 1:1 Compound A to Compound B in RPMI media containing 10% FBS or DMEM containing 5% FBS. Cells were incubated in the presence of compounds for 3 days. ATP levels were determined by adding Cell Titer Glo® (Promega) according to the manufacturer's protocol. Briefly, Cell Titer Glo® was added each plate, incubated for 20 minutes then luminescent signal was read on the SpectraMax L plate reader with a 0.5 sec integration time.
(§3) Inhibition of cell growth was estimated after treatment with compound or combination of compounds for three days and comparing the signal to cells treated with vehicle (DMSO). Cell growth was calculated relative to vehicle (DMSO) treated control wells. Concentration of compound that inhibits 50% of control cell growth (IC50) was interpolated using nonlinear regression with the equation, y=(A+(B−A)/(1+(C/x)̂D))), where A is the minimum response (ymin), B is the maximum response (ymax), C is the inflection point of the curve (EC50) and D is the Hill coefficient. […]

In a further assay the test system is ZR-75-1. Conditions: Homo sapiens, ZR-75-1, ZR-75-1, breast, PTEN L108R; single agent; read-out: IC50 Single Agent (mean +/- std). On the procedure:
as §1, §2, §3

In a further assay the test system is SUM190PT. Conditions: Homo sapiens, breast, HER2+, PIK3CA H1047R, single agent, read-out: IC50 Single Agent (mean +/- std). On the procedure: as §1, §2, §3
The test system of the next assay is KPL-4. Particulars: Homo sapiens, KPL4, KPL-4, breast, HER2+, PIK3CA H1047R; single agent; read-out: IC50 Single Agent (mean +/- std). The protocol:
as §1, §2, §3

A further assay concerns HN5. Particulars: Homo sapiens, HN5, HN5, H&N, EGFR+, WT; single agent; read-out: IC50 Single Agent (mean +/- std). The protocol:
as §1, §2, §3

IC50 data for two molecules are collected here from US20150094321A1, “COMBINATION” (GlaxoSmithKline LLC, priority 2009, published 2015).

With `CC(=O)Nc1cccc(-n2c(=O)n(C3CC3)c(=O)c3c(Nc4ccc(I)cc4F)n(C)c(=O)c(C)c32)c1` [Compound A, N-{3-[3-cyclopropyl-5-(2-fluoro-4-iodo-phenylamino)-6,8-dimethyl-2,4,7-trioxo-3,4,6,7-tetrahydro-2H-pyrido[4,3-d]pyrimidin-1-yl]phenyl}acetamide], the IC50 in the assay with MDA-MB-453, in the assay with ZR-75-1, in the assay with SUM190PT and in the assay on KPL-4 was over 1000 nM throughout.
Take `Cn1ncc(Cl)c1-c1cc(C(=O)N[C@H](CN)Cc2ccc(F)c(F)c2)oc1Cl` [Compound B, N-{(1S)-2-amino-1-[(3,4-difluorophenyl)methyl]ethyl}-5-chloro-4-(4-chloro-1-methyl-1H-pyrazol-5-yl)-2-furancarboxamide]: the IC50 with HN5 is over 1000 nM.
